From patent US20140142343A1, “Novel Fragrance Compounds” (Givaudan Nederland Services B.V., priority 2006, published 2014)
Values after ≈ are worked out from the molar mass of the structure shown.

Tests used:
[1] = tested on: Mosquito (Aedes aegyptii); assay: Insect repellency against mosquitoes, treated arm in cage; format: in vivo
Protocol: (§1) Compound 1 was tested for insect repellency against mosquitoes and ants. In all cases, repellency is calculated with reference to an untreated surface having 0% repellency.
(§2) Ant (Lasius niger) 300 mm square vinyl tiles half treated with 0.9 ml test material and left for 2 hours. Glass arena 250 mm square, 75 mm high and fluon coated, open to air. Arena illuminated from 1.0 m above by four 18 W fluorescent lamps. 50 black ants per arena counted every 5 minutes. Arena turned 180 degrees every 10 minutes. Any ants injured or escaping replaced. Mosquito (Aedes aegyptii) A perspex box approx 18 inch cube, with sleeved circular entry was used as the test cage. The box contained 5 day old, mated honey fed females. The area of arm to be tested was measured. The test material was applied from ethanol solution at a rate of 0.2 mg test material per square centimetre. A similar area of the other arm was used for the control. A pair of disposable gloves was worn on the hands throughout the test. In turn each arm was inserted into the cage for 30 seconds. This was repeated 3 times. The number of mosquitoes landing on the arm was recorded every five seconds. As penetration of the skin occurs within 5 seconds the arm was flicked at this frequency to dislodge the flies.

Ant (Lasius niger) = assay: Insect repellency against ants, half-treated vinyl tiles; format: in vivo
Protocol: as §1
Ant test is completed with a simplified general purpose cleaner formulation: […]
This product is applied to the floor tiles (vinyl) at the rate of 20 g·m^−2.
as §2, with “As penetration of the skin occurs within 5 seconds the arm was flicked at this frequency to dislodge the flies.” left out

[2] = tested on: Staphylococcus aureus ATCC 6538; assay: Minimum Inhibitory Concentration (MIC); format: cell-based; settings: for MIC: ATCC6538, Staphylococcus aureus ATCC 6538, change in absorbance <0.2 A540; for activity against Staphylococcus aureus (in words): summary statement
Protocol: One property that characterises the effectiveness of a compound or composition to inhibit the growth of bacteria, is the minimum inhibitory concentration, or MIC, of the compound or composition. The MIC is defined as the minimum amount of a compound or composition (e.g. in ppm) at which little or no bacterial growth is observed. […] The minimum inhibitory concentration of a compound was determined by the following method. A culture of the test strains of bacteria Staphylococcus aureus ATCC 6538 (American Type Culture Collection, P.O. Box 1549, Manassas, Va. 20108, USA) was incubated for 16-24 hours, in a shaken flask at 37° C. The cultures was then diluted in sterile 0.1% TSB (Oxoid, Basingstoke, UK) to give a concentration of bacteria of approximately 10^6 colony forming units (cfu) per ml. Fragrance compounds were prepared in sterile TSB to give stock solutions with final concentrations of 40,000 ppm. The absorbance at 540 nm (hereinafter referred to for brevity and simplicity as “A540”) was used as a measure of turbidity resulting from bacterial growth. The MIC was taken as the concentration of ingredient required to inhibit growth so that the average change in absorbance during the incubation period was <0.2 A540.

MIC [2] [µg/mL]	SMILES	repellency against mosquitoes ([1]; after 10 minutes, wrt untreated surface, 0.2 mg test material per square centimetre) [%]	repellency properties against mosquitoes (in words) ([1]; summary statement)	repellency against ants (Ant (Lasius niger); over first hour, wrt untreated surface, 1.0% in general purpose cleaner formulation) [%]	repellency properties against ants (in words) (Ant (Lasius niger); summary statement)	activity against Staphylococcus aureus (in words) [2]
312 (≈ 1590 µM)	CC(C)(C)C1CCCC(CCC=O)C1 (stereo not shown) [Compound 1, 3-(3-tert-butylcyclohexyl)propanal]	100	excellent repellency properties	72	excellent repellency properties	excellent activity against Staphylococcus aureus
312 (≈ 1590 µM)	CC(C)C1CCCC(C(C)CC=O)C1 (stereo not shown) [Compound 2, 3-(3-isopropylcyclohexyl)butanal]	–	–	–	–	excellent activity against Staphylococcus aureus
5000 (≈ 29700 µM)	CC(C=O)CC1CCCC(C)C1 (stereo not shown) [Compound 3, 2-methyl-3-(3-methylcyclohexyl)propanal]	–	–	–	–	–
> 5000	CC1CCCC(CCC=O)C1 (stereo not shown) [Compound 4, 3-(3-methylcyclohexyl)propanal]	–	–	–	–	–
